In publication PMC5218480 (PLoS ONE, 2017):

System: MV-4-11 cells
Assay: Gene expression microarray analysis (Affymetrix PrimeView) and GSEA
Format: cell-based, human
Design: RFU PODN (11730768_x_at) / Fold change /veh PODN (11730768_x_at) / RFU LINC00158 (11744669_a_at) / Fold change /veh LINC00158 (11744669_a_at) / RFU DUSP10 (11751237_a_at) / Fold change /veh DUSP10 (11751237_a_at) / RFU ID3 (11757404_x_at) / Fold change /veh ID3 (11757404_x_at) / RFU PLEKHG5 (11737974_s_at) / Fold change /veh PLEKHG5 (11737974_s_at) / RFU LRRC4B (11730491_at) / Fold change /veh LRRC4B (11730491_at) / RFU GIMAP4 (11747438_a_at) / Fold change /veh GIMAP4 (11747438_a_at) / RFU KRT8 (11758183_x_at) / Fold change /veh KRT8 (11758183_x_at) / RFU CNN1 (11734310_a_at) / Fold change /veh CNN1 (11734310_a_at) / RFU VPS37D (11726825_at) / Fold change /veh VPS37D (11726825_at) / RFU C10orf10 (11716522_x_at) / Fold change /veh C10orf10 (11716522_x_at) / RFU KIR2DL2 /// KIR2DL4 /// KIR2DL5A /// KIR2DL5B /// KIR2DS1 /// KIR2DS2 /// KIR2DS3 /// KIR2DS4 /// KIR3DL3 /// KIR3DL3 /// KIR3DS1 (11738374_at) / Fold change /veh KIR2DL2 /// KIR2DL4 /// KIR2DL5A /// KIR2DL5B /// KIR2DS1 /// KIR2DS2 /// KIR2DS3 /// KIR2DS4 /// KIR3DL3 /// KIR3DL3 /// KIR3DS1 (11738374_at) / RFU C1QL1 (11718748_at) / Fold change /veh C1QL1 (11718748_at) / RFU TMPRSS4 (11747572_a_at) / Fold change /veh TMPRSS4 (11747572_a_at) / RFU HAMP (11756126_x_at) / Fold change /veh HAMP (11756126_x_at) / RFU RNFT2 (11725882_a_at) / Fold change /veh RNFT2 (11725882_a_at) / RFU NR4A2 (11747474_a_at) / Fold change /veh NR4A2 (11747474_a_at) / RFU ABCC12 (11746883_a_at) / Fold change /veh ABCC12 (11746883_a_at) / RFU TMEM136 (11760407_x_at) / Fold change /veh TMEM136 (11760407_x_at) / RFU CLDN22 /// WWC2 (11732394_at) / Fold change /veh CLDN22 /// WWC2 (11732394_at) / RFU HLA-DPB1 (11760878_x_at) / Fold change /veh HLA-DPB1 (11760878_x_at) / RFU SPINT1 (11716480_a_at) / Fold change /veh SPINT1 (11716480_a_at) / RFU GAP43 (11754022_s_at) / Fold change /veh GAP43 (11754022_s_at) / RFU A4GNT (11735810_at) / Fold change /veh A4GNT (11735810_at) / RFU PRB3 (11715151_x_at) / Fold change /veh PRB3 (11715151_x_at) / RFU TUBB4B (11761932_at) / Fold change /veh TUBB4B (11761932_at) / RFU CAPN14 (11732068_a_at) / Fold change /veh CAPN14 (11732068_a_at) / RFU TMCC2 (11721928_a_at) / Fold change /veh TMCC2 (11721928_a_at) / RFU IRGQ (11745062_a_at) / Fold change /veh IRGQ (11745062_a_at) / RFU FAM174B (11720279_a_at) / Fold change /veh FAM174B (11720279_a_at) / RFU TMPRSS4 (11748680_a_at) / Fold change /veh TMPRSS4 (11748680_a_at) / RFU FAM212B (11763350_a_at) / Fold change /veh FAM212B (11763350_a_at) / RFU PLEKHG5 (11743358_a_at) / Fold change /veh PLEKHG5 (11743358_a_at) / RFU ZSCAN30 (11745921_a_at) / Fold change /veh ZSCAN30 (11745921_a_at) / RFU CMKLR1 (11741424_a_at) / Fold change /veh CMKLR1 (11741424_a_at) / RFU LOC101060620 /// MAPK8IP1 (11723275_at) / Fold change /veh LOC101060620 /// MAPK8IP1 (11723275_at) / RFU SPTSSB (11747773_x_at) / Fold change /veh SPTSSB (11747773_x_at) / RFU PRSS12 (11739890_at) / Fold change /veh PRSS12 (11739890_at) / RFU BIN1 (11741810_x_at) / Fold change /veh BIN1 (11741810_x_at) / RFU WNT11 (11732464_a_at) / Fold change /veh WNT11 (11732464_a_at) / RFU C10orf10 (11716521_a_at) / Fold change /veh C10orf10 (11716521_a_at) / RFU C5orf56 (11738089_at) / Fold change /veh C5orf56 (11738089_at) / RFU CYB561 (11721691_x_at) / Fold change /veh CYB561 (11721691_x_at) / RFU ANKRD19P (11752326_a_at) / Fold change /veh ANKRD19P (11752326_a_at) / RFU OR2T12 /// OR2T33 /// OR2T8 (11738714_s_at) / Fold change /veh OR2T12 /// OR2T33 /// OR2T8 (11738714_s_at) / RFU VCAN (11748164_a_at) / Fold change /veh VCAN (11748164_a_at) / RFU JSRP1 (11732532_at) / Fold change /veh JSRP1 (11732532_at) / RFU KRTAP10-11 (11738290_x_at) / Fold change /veh KRTAP10-11 (11738290_x_at) / RFU MYO3A (11730013_a_at) / Fold change /veh MYO3A (11730013_a_at) / RFU EBF3 (11725865_a_at) / Fold change /veh EBF3 (11725865_a_at) / RFU CAMK2N1 (11719241_x_at) / Fold change /veh CAMK2N1 (11719241_x_at) / RFU C5orf56 (11738088_a_at) / Fold change /veh C5orf56 (11738088_a_at) / RFU OLFML3 (11715873_a_at) / Fold change /veh OLFML3 (11715873_a_at) / RFU LOC100653217 /// NTM (11731650_a_at) / Fold change /veh LOC100653217 /// NTM (11731650_a_at) / RFU MAPK11 (11762145_a_at) / Fold change /veh MAPK11 (11762145_a_at) / RFU FIZ1 (11724087_x_at) / Fold change /veh FIZ1 (11724087_x_at) / RFU OASL (11726364_x_at) / Fold change /veh OASL (11726364_x_at) / RFU SOX15 (11748057_x_at) / Fold change /veh SOX15 (11748057_x_at) / RFU CD79A (11719716_a_at) / Fold change /veh CD79A (11719716_a_at) / RFU HIST1H1D (11736915_at) / Fold change /veh HIST1H1D (11736915_at) / RFU CASKIN2 (11723855_a_at) / Fold change /veh CASKIN2 (11723855_a_at) / RFU LOC730098 (11760151_x_at) / Fold change /veh LOC730098 (11760151_x_at) / RFU OR4N2 (11742367_at) / Fold change /veh OR4N2 (11742367_at) / RFU PRRT2 (11749266_a_at) / Fold change /veh PRRT2 (11749266_a_at) / RFU SNX32 (11753110_a_at) / Fold change /veh SNX32 (11753110_a_at) / RFU CDHR5 (11726645_a_at) / Fold change /veh CDHR5 (11726645_a_at) / RFU RCAN1 (11760418_a_at) / Fold change /veh RCAN1 (11760418_a_at) / RFU FAM167A (11723789_a_at) / Fold change /veh FAM167A (11723789_a_at) / RFU FAM26E (11764081_at) / Fold change /veh FAM26E (11764081_at) / RFU ISYNA1 (11749810_s_at) / Fold change /veh ISYNA1 (11749810_s_at) / RFU ACY1 (11761880_at) / Fold change /veh ACY1 (11761880_at) / RFU 11764098_at / Fold change /veh 11764098_at / RFU SAMD14 (11745864_x_at) / Fold change /veh SAMD14 (11745864_x_at) / RFU NPB (11741838_a_at) / Fold change /veh NPB (11741838_a_at) / RFU TMPRSS6 (11731388_a_at) / Fold change /veh TMPRSS6 (11731388_a_at) / RFU KRTAP10-2 (11738614_at) / Fold change /veh KRTAP10-2 (11738614_at) / RFU ARHGAP8 /// PRR5-ARHGAP8 (11727945_x_at) / Fold change /veh ARHGAP8 /// PRR5-ARHGAP8 (11727945_x_at) / RFU KRTAP5-7 /// NADSYN1 (11734609_at) / Fold change /veh KRTAP5-7 /// NADSYN1 (11734609_at) / RFU RASL12 (11751679_a_at) / Fold change /veh RASL12 (11751679_a_at) / RFU CDKN2B (11736163_a_at) / Fold change /veh CDKN2B (11736163_a_at) / RFU PRF1 (11729649_at) / Fold change /veh PRF1 (11729649_at) / RFU, ZNF638 /// ZNF638-IT1 / Fold change vs veh, ZNF638 /// ZNF638-IT1 / RFU, PANK3 / Fold change vs veh, PANK3 / RFU, SH3YL1 / Fold change vs veh, SH3YL1 / RFU, ZEB2 / Fold change vs veh, ZEB2 / RFU, NRIP1 / Fold change vs veh, NRIP1 / RFU, PTTG1IP / Fold change vs veh, PTTG1IP / RFU, CAPN2 / Fold change vs veh, CAPN2 / RFU, MED14 / Fold change vs veh, MED14 / RFU, SNORA58 / Fold change vs veh, SNORA58 / RFU, C1orf63 / Fold change vs veh, C1orf63 / RFU, LRRFIP1 / Fold change vs veh, LRRFIP1 / RFU, NDUFAF7 / Fold change vs veh, NDUFAF7 / RFU, SLC12A2 / Fold change vs veh, SLC12A2 / RFU, IBTK / Fold change vs veh, IBTK / RFU, ESF1 / Fold change vs veh, ESF1 / Fold change vs veh, TMEM50B / RFU, TAOK1 / Fold change vs veh, TAOK1 / RFU, ACBD3 / Fold change vs veh, ACBD3 / RFU, TMA16 / Fold change vs veh, TMA16 / RFU, RWDD3 / Fold change vs veh, RWDD3 / RFU, BCAT1 / Fold change vs veh, BCAT1 / RFU, EDEM3 / Fold change vs veh, EDEM3 / RFU, TMEM33 / Fold change vs veh, TMEM33 / RFU, WDR75 / Fold change vs veh, WDR75 / RFU, AHCTF1 / Fold change vs veh, AHCTF1 / RFU, TFRC / Fold change vs veh, TFRC / RFU, ZDHHC17 / Fold change vs veh, ZDHHC17 / RFU, NOM1 / Fold change vs veh, NOM1 / RFU, ARL8B / Fold change vs veh, ARL8B / RFU, ZBTB11 / Fold change vs veh, ZBTB11 / RFU, TAMM41 / Fold change vs veh, TAMM41 / RFU, KIAA1704 /// LOC100996395 / Fold change vs veh, KIAA1704 /// LOC100996395 / RFU, ING1 / Fold change vs veh, ING1 / RFU, TRMT61B / Fold change vs veh, TRMT61B / RFU, FUBP3 / Fold change vs veh, FUBP3 / RFU, TP53 / Fold change vs veh, TP53 / RFU, TNKS2 / Fold change vs veh, TNKS2 / RFU, ZFP14 / Fold change vs veh, ZFP14 / RFU, ACTR2 / Fold change vs veh, ACTR2 / RFU, PPP3R1 / Fold change vs veh, PPP3R1 / RFU, PIK3R1 / Fold change vs veh, PIK3R1 / RFU, HNRNPA1 / Fold change vs veh, HNRNPA1 / RFU, RNF170 / Fold change vs veh, RNF170 / RFU, ZNF28 / Fold change vs veh, ZNF28 / RFU, RNGTT / Fold change vs veh, RNGTT / RFU, OGT / Fold change vs veh, OGT / RFU, BRD1 / Fold change vs veh, BRD1 / RFU, MARS / Fold change vs veh, MARS / RFU, ZNF655 / Fold change vs veh, ZNF655 / RFU, FAHD1 / Fold change vs veh, FAHD1 / RFU, BDP1 / Fold change vs veh, BDP1 / RFU, LRRCC1 / Fold change vs veh, LRRCC1 / RFU, ARID1A / Fold change vs veh, ARID1A / RFU, ZNF146 / Fold change vs veh, ZNF146 / RFU, ZNF330 / Fold change vs veh, ZNF330 / RFU, GPN3 / Fold change vs veh, GPN3 / RFU, C9orf123 / Fold change vs veh, C9orf123 / RFU, N4BP2L2 / Fold change vs veh, N4BP2L2 / RFU, ARFIP1 / Fold change vs veh, ARFIP1 / RFU, FAM179B / Fold change vs veh, FAM179B / RFU, BCL10 / Fold change vs veh, BCL10 / RFU, UHRF1BP1L / Fold change vs veh, UHRF1BP1L / RFU, BET1 / Fold change vs veh, BET1 / RFU, CNOT2 / Fold change vs veh, CNOT2 / RFU, ZNF268 / Fold change vs veh, ZNF268 / Fold change vs veh, ZNF507 / RFU, DGCR2 / Fold change vs veh, DGCR2 / RFU, WDSUB1 / Fold change vs veh, WDSUB1 / Fold change vs veh, HSP90B1 /// MIR3652 / RFU, ADSS / Fold change vs veh, ADSS / RFU, GK / Fold change vs veh, GK / RFU, ZNF148 / Fold change vs veh, ZNF148 / RFU, TAF9 / Fold change vs veh, TAF9 / RFU, SLC1A5 / Fold change vs veh, SLC1A5 / RFU, SLMO2 / Fold change vs veh, SLMO2 / RFU, ABCC4 / Fold change vs veh, ABCC4 / RFU, LOC101060439 /// RAP1B / Fold change vs veh, LOC101060439 /// RAP1B / RFU, RFX7 / Fold change vs veh, RFX7 / RFU, GTPBP10 / Fold change vs veh, GTPBP10 / RFU, CNEP1R1 / Fold change vs veh, CNEP1R1 / RFU, BIVM-ERCC5 /// ERCC5 / Fold change vs veh, BIVM-ERCC5 /// ERCC5 / RFU, ILF3 / Fold change vs veh, ILF3 / RFU 11762660_at / Fold change /veh 11762660_at / RFU VCAN (11757783_s_at) / Fold change /veh VCAN (11757783_s_at) / RFU DDX43 (11728927_at) / Fold change /veh DDX43 (11728927_at) / RFU KRT8 (11758188_x_at) / Fold change /veh KRT8 (11758188_x_at) / RFU NKD1 (11759106_at) / Fold change /veh NKD1 (11759106_at) / RFU SRD5A1 (11742802_a_at) / Fold change /veh SRD5A1 (11742802_a_at) / RFU TPSAB1 /// TPSB2 (11721975_s_at) / Fold change /veh TPSAB1 /// TPSB2 (11721975_s_at) / RFU GSTM3 (11746129_a_at) / Fold change /veh GSTM3 (11746129_a_at) / RFU IL23R (11737362_x_at) / Fold change /veh IL23R (11737362_x_at) / RFU TMEM51 (11727254_a_at) / Fold change /veh TMEM51 (11727254_a_at) / RFU PIWIL2 (11732686_x_at) / Fold change /veh PIWIL2 (11732686_x_at) / RFU ORM1 (11744905_x_at) / Fold change /veh ORM1 (11744905_x_at) / RFU CCDC152 (11743942_at) / Fold change /veh CCDC152 (11743942_at) / RFU ECM1 (11717891_a_at) / Fold change /veh ECM1 (11717891_a_at) / RFU IL23R (11748794_a_at) / Fold change /veh IL23R (11748794_a_at) / RFU TNFAIP8L3 (11732012_x_at) / Fold change /veh TNFAIP8L3 (11732012_x_at) / RFU MBOAT4 (11741988_at) / Fold change /veh MBOAT4 (11741988_at) / RFU 11764193_at / Fold change /veh 11764193_at / RFU TMEM53 (11763286_at) / Fold change /veh TMEM53 (11763286_at) / RFU MAGEB2 (11727129_at) / Fold change /veh MAGEB2 (11727129_at) / RFU TMEM200A (11744735_a_at) / Fold change /veh TMEM200A (11744735_a_at) / RFU CCDC152 (11751479_a_at) / Fold change /veh CCDC152 (11751479_a_at) / RFU FAM211A (11726209_a_at) / Fold change /veh FAM211A (11726209_a_at) / RFU RGS16 (11746705_a_at) / Fold change /veh RGS16 (11746705_a_at) / RFU VCAN (11755009_s_at) / Fold change /veh VCAN (11755009_s_at) / RFU RHOB (11743442_s_at) / Fold change /veh RHOB (11743442_s_at) / RFU RGS16 (11720943_a_at) / Fold change /veh RGS16 (11720943_a_at) / RFU RGS16 (11720944_at) / Fold change /veh RGS16 (11720944_at) / RFU, VPS4B / Fold change vs veh, VPS4B / RFU, CREB1 / Fold change vs veh, CREB1 / RFU, DNAJC13 / Fold change vs veh, DNAJC13 / RFU, GNAQ / Fold change vs veh, GNAQ / RFU, CDK5R1 / Fold change vs veh, CDK5R1 / RFU, ZRANB3 / Fold change vs veh, ZRANB3 / RFU, CUL4A / Fold change vs veh, CUL4A / RFU, CCNY / Fold change vs veh, CCNY / RFU, UFL1 / Fold change vs veh, UFL1 / RFU, COG3 / Fold change vs veh, COG3 / RFU, DIAPH2 / Fold change vs veh, DIAPH2 / RFU, SKA2 / Fold change vs veh, SKA2 / RFU, AFF3 / Fold change vs veh, AFF3 / RFU, LMF1 / Fold change vs veh, LMF1 / RFU, IPO11 / Fold change vs veh, IPO11 / RFU, DFFB / Fold change vs veh, DFFB / RFU, FOXP1 / Fold change vs veh, FOXP1 / RFU, CARD8 / Fold change vs veh, CARD8 / RFU, STRN3 / Fold change vs veh, STRN3 / RFU, ADK / Fold change vs veh, ADK / RFU, RASSF2 / Fold change vs veh, RASSF2 / RFU, WIPF1 / Fold change vs veh, WIPF1 / RFU, LARP1B / Fold change vs veh, LARP1B / RFU, RASA1 / Fold change vs veh, RASA1 / RFU, RB1 / Fold change vs veh, RB1 / RFU, PPFIA1 / Fold change vs veh, PPFIA1 / RFU, MAT2A / Fold change vs veh, MAT2A / RFU, CCT5 / Fold change vs veh, CCT5 / RFU, WDR92 / Fold change vs veh, WDR92 / RFU, CUX1 / Fold change vs veh, CUX1 / RFU, TTC7A / Fold change vs veh, TTC7A / RFU, TMEM135 / Fold change vs veh, TMEM135 / RFU, DEPTOR / Fold change vs veh, DEPTOR / RFU, CPM / Fold change vs veh, CPM / RFU, DNAJB6 / Fold change vs veh, DNAJB6 / RFU, CACNA2D3 / Fold change vs veh, CACNA2D3 / RFU, DTX4 / Fold change vs veh, DTX4 / RFU, TFCP2 / Fold change vs veh, TFCP2 / RFU, GMCL1 /// GMCL1P1 / Fold change vs veh, GMCL1 /// GMCL1P1 / RFU, AEBP2 / Fold change vs veh, AEBP2 / RFU, SNHG1 /// SNORD22 /// SNORD25 /// SNORD26 /// SNORD27 /// SNORD28 /// SNORD29 /// SNORD31 / Fold change vs veh, SNHG1 /// SNORD22 /// SNORD25 /// SNORD26 /// SNORD27 /// SNORD28 /// SNORD29 /// SNORD31 / Fold change (Aza/veh), C12orf56 (ProbeSet 11735607_a_at) / Fold change (ACY-1035/veh), C12orf56 (ProbeSet 11735607_a_at) / Fold change (Aza/veh), FGFR1OP (ProbeSet 11751329_s_at) / Fold change (ACY-1035/veh), FGFR1OP (ProbeSet 11751329_s_at) / Fold change (Aza/veh), VPS36 (ProbeSet 11739960_a_at) / Fold change (ACY-1035/veh), VPS36 (ProbeSet 11739960_a_at) / RFU SYPL1 (11715823_x_at) / Fold change /veh SYPL1 (11715823_x_at) / RFU IGFBP7 (11715501_s_at) / Fold change /veh IGFBP7 (11715501_s_at) / RFU REEP3 (11722064_at) / Fold change /veh REEP3 (11722064_at) / RFU IGLL1 (11728026_x_at) / Fold change /veh IGLL1 (11728026_x_at): dose or concentration left out as unconfirmed
Conditions: MV-4-11 cells, 48 hours

For `Nc1ncn([C@@H]2O[C@H](CO)[C@@H](O)[C@H]2O)c(=O)n1` [azacitidine], the “RFU OASL (11726364_x_at)” value was 34.50 RFU.
